From article PMC7528119, “The rapid “teabag” method for high-end purification of membrane proteins” (Scientific Reports, 2020)

Target: T1, KCC2 (Monodelphis domestica, UniProt F6WQ48)
T1 construct: gene SLC12A5; N-terminal His and FLAG tag
T1 sequence (F6WQ48 1-1115): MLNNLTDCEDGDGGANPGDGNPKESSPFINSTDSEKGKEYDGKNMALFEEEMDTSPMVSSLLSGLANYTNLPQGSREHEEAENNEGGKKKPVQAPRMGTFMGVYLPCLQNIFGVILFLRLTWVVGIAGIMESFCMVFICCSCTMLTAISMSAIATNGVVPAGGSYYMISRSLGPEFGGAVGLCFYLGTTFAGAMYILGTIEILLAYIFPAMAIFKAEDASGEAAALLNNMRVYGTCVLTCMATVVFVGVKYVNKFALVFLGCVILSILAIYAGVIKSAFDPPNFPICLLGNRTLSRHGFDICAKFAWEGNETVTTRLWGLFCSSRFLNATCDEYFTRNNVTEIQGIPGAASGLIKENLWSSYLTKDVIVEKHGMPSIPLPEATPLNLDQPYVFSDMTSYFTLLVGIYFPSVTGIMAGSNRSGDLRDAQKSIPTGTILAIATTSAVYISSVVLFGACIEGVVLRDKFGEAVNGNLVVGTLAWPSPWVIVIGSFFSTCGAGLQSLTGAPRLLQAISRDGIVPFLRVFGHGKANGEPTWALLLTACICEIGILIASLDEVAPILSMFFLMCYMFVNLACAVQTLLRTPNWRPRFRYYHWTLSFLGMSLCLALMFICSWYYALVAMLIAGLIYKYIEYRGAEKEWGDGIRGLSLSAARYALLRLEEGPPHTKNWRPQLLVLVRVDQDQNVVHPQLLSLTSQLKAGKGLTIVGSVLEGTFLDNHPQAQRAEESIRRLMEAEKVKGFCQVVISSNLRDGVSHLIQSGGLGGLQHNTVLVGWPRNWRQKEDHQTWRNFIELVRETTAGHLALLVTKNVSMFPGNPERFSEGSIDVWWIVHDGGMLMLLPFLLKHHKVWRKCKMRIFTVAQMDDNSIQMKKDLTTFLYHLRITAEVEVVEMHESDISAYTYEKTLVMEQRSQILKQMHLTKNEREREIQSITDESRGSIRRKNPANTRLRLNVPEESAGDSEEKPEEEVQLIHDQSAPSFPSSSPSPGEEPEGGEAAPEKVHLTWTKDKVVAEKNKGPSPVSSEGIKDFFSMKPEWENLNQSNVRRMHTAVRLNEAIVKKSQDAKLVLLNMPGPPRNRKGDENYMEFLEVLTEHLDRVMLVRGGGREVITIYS
Experiment: SPR steady-state affinity on covalently immobilized KCC2
Assay type: binding

Cc1csc(N(C(=O)CSc2ccc(-c3ccccc3)nn2)C2CC2)n1 [VU0463271]
Kd: 750 ± 250 nM
